Melting point data for 61 molecules are collected here from a melting point compilation (Tetko et al.; mined from patent text by program, amines drawn as free bases though some values may be those of a salt).

SMILES strings stand for the structures.

Take `Cc1nc(NC(=O)c2ccccc2)sc1C(=O)NCc1ccccc1Cl`: the melting point (commonly the temperature of the solid-liquid transition) fell in the range of 191 to 193 °C.
Under `CCCCN(Cc1ccccc1)C(=O)Nc1cccc(Cl)c1` stands 69 to 70 °C; under `Cc1sc(Br)c(C)c1C(=O)O`, 183 to 184 °C; under `C#CCN(Cc1cc2c(=O)n(C)c(COS(C)(=O)=O)nc2cc1Cl)c1ccc(C(=O)OC(C)(C)C)cc1`, 204 to 205 °C.
Next, `COc1ccc(CNC(=S)N2CCN(c3ncnc4cc(OC)c(OC)cc34)CC2)cc1`: 201 to 204 °C; `CCOC(=O)CC(=O)Nc1nc(C)cs1`: 138 to 141 °C.
In turn, `NNC(=O)c1ncn2ccccc12` came in with a melting point of 189 °C.
`COC(=O)c1ccc(C(=O)NC(C)C)cc1S(N)(=O)=O`: the melting point was in the range of 203 to 205 °C.
As for `CNC(=O)C1CC2(CCN(CCCC(=O)c3ccc(F)cc3)C2)c2ccc(Cl)cc21` (stereo unspecified), the melting point lay within 151 to 153 °C.
Consider `c1ccc(Sc2cc(Sc3ccccc3)cc(Sc3ccccc3)c2)cc1`, for which the melting point lay within 40 to 41 °C.
In turn, `COCCOc1ccc(CCC(=O)NS(=O)(=O)CCC(C)C)c(Oc2ncc(C(F)(F)F)cc2Cl)c1` came in with a melting point of 130 to 132 °C.
Under `NC(=O)C(Nc1ccccc1C1CC1)c1c(Cl)cccc1Cl` (stereo unspecified) stands 196 °C; under `CCCc1c(O)ccc(C(=O)OC)c1O`, 66 to 68 °C.
Under `COc1cc2cc3c(Nc4ccc(Sc5nccn5C)c(Cl)c4)c(C#N)cnc3cc2cc1OCCn1nccn1` stands 235 to 237 °C.
Next, `CN(C(=O)COc1nc2cccc(F)c2s1)c1ccccc1`: 116 °C.
As to `COc1ccc(CCNc2ncnc3occ(C)c23)cc1`, the melting point was determined as 184 °C.
Next, `COc1ccc(Cc2nc(N(C)CCO)c3c(C)c(C#N)sc3n2)cc1OC`: 62 to 63 °C.
`O=C(NC12CC3CC(CC(C3)C1)C2)c1cc(O)c(O)c(Cl)c1` yielded a melting point of 244 to 247 °C.
The molecule `CSc1sc(C(N)=O)c2c1-c1sc(-c3ccccc3)cc1CC2` came in with a melting point of 192 to 193 °C.
Molecule `CN(C)C(=O)CNC(=O)c1ccc(-c2ccc3nnn(Cc4ccc5ncccc5c4)c3n2)cc1F` returned a melting point of 177 to 179 °C.
Next, `CS(=O)(=O)NC(=O)COc1ccc(CCCS(=O)(=O)c2ccc(Cl)cc2)cc1NC(=O)c1cccc(OCc2nc3ccccc3s2)c1`: 153 °C.
In turn, `c1csc(-c2coc(COc3ccc(CCCn4ccnc4)cc3)n2)c1` had a melting point of 123 to 124 °C.
Next, `O=C(O)Cc1ccc2c(c1)C(=O)Cc1cccnc1O2`: 181 to 184 °C; `N#CCOc1ccc2cc(Br)ccc2c1Br`: 130 to 132 °C.
Next, `CC(=O)c1cc(NC(=O)c2ccccc2)cc(C(C)=O)c1`: 188 to 189 °C; `CCCc1c(OCCCCCCc2cccc(CCCCCC(=O)O)c2CCC(=O)O)ccc2c1OCCC2=O`: 109 to 110 °C; `Cc1nccn1CCCNC(=O)c1cc2ccccc2[nH]1`: 235 to 237 °C.
`CCCCCCCCCCN(C[C@H]1CCC[C@H](CN(CCCCCCCCCC)C(=O)Nc2ccc(N(C)C)cc2)C1)C(=O)Nc1ccc(N(C)C)cc1` (relative stereo): the melting point fell in the range of 115 to 117 °C.
Next, `Nc1c(Cl)cc(C(O)CNCCCCCCOCCc2ccccn2)cc1C(F)(F)F` (stereo unspecified): 51.5 to 53 °C; `CCNC(=O)c1ccc2ccc(OC)cc2c1OC(C)C`: 78 to 79 °C.
Under `CCOC(=O)c1ccc(C#CC(O)c2cccc3c2C(C)(C)CCS3)cc1` (stereo unspecified) stands 108 °C.
`Cc1cc(Cl)nc(NC(=O)NS(=O)(=O)c2ccccc2OC(F)F)n1` gave a melting point of 190 to 191 °C.
Next, `CCCc1c(OCCCOc2ccc(-c3cscn3)c(OC)c2CCC)ccc2c1OC(CCC(=O)O)CC2` (stereo unspecified): 110 to 113 °C; `COc1cc(Nc2nccc(-c3ccc(O)cc3)n2)cc(OC)c1OC`: 200 to 202 °C.
Regarding `CCCOC(Cc1ccc(OCCc2nc(-c3ccccc3)oc2C)c2ccccc12)C(=O)O` (stereo unspecified), the melting point lay within 103 to 105 °C.
Take `CCCCCCOc1cc(-c2ccc3cc4c(cc3c2)C(C)(C)CCC4(C)C)ccc1C(=O)O`: the melting point is 105 to 106 °C.
As to `CN(CCSCc1n[nH]c(CSCCN(C)C(N)=S)n1)C(N)=S`, the melting point was 133 to 135 °C.
Molecule `CCCCCCCCCCCCCCCCCCNC(=O)OCC(CNS(=O)(=O)CCCI)NC(=O)OC` (stereo unspecified) displayed a melting point of 97 °C.
Next, `Cc1nc(C#N)c2n1-c1ccc(Cl)cc1C(c1ccccc1)=NC2`: 228 to 229 °C; `CC(C)C(=O)Nc1c(Cl)cccc1C(=O)Nc1ccc(OC(F)(F)F)cc1`: 230 to 233 °C.
Next, `COC(=O)C(Oc1ccc(F)cc1)c1ccc(Sc2ccc(Cl)cc2)cc1` (stereo unspecified): 84.5 to 87 °C; `CC(C)(C(C#N)=NO)S(C)(=O)=O`: 139 to 141 °C; `CCCCOc1nc(N)c2[nH]c(=O)n(CCCNc3cccc(CC(=O)O)c3)c2n1`: 247 °C.
For `CCCC[C@@H](NC(=O)[C@H](Cc1ccc(O)cc1)NC(=O)OC(C)(C)C)C(=O)NCC(=O)Oc1c(Cl)c(Cl)c(Cl)c(Cl)c1Cl`, the melting point was in the range of 175 to 177 °C.
Next, `O=C(CCn1cnc2c(=O)[nH]cnc21)NCCc1c[nH]c2ccccc12`: 204 to 206 °C; `CNc1nc(Nc2ccc(OCCNC(=O)OC(C)(C)C)cc2)ncc1[N+](=O)[O-]`: 205 to 207 °C; `O=C(O)Cc1cc(F)ccc1OCCc1ccccc1`: 99 to 101 °C.
Under `CC(C)c1cccc(C(C)C)c1NC(=O)CN1CCN(CCSc2nc3cccc(C(C)(C)C)c3o2)CC1` stands 138 to 140 °C; under `COc1nccc2c1C(c1ccccc1C(F)(F)F)C(C(=O)OCCN(C)C)=C(C)N2` (stereo unspecified), 137 to 138 °C; under `CC(=O)Nc1ccc(S(=O)(=O)N2CCN(C)CC2)cc1`, 184 °C.
Turning to `CC(C)(C)c1cc(Nc2cccc(-c3nnn[nH]3)c2)cc(C(C)(C)C)c1O`, the melting point is 231 to 233 °C.
Next, `CCCCCc1nc(-c2ccccc2)c(CCC(=O)O)o1`: 80 to 81 °C; `CCOC(=O)Cc1cn(Cc2ccccc2)nc1OCc1ccc(OCc2nc(-c3ccccc3)oc2C)c(OC)c1`: 86 to 87 °C; `Cc1cc2nc(Cl)c3cccnc3n2n1`: 202 °C.
Next, `Cc1ccccc1NC1=CC(=O)NCC1`: 155 to 158 °C.
On to `CN(C)CCNc1cc(Sc2ccc(Cl)cc2)nc(-c2ccc(Cl)c(Cl)c2)n1`, for which the melting point lay within 99 to 103 °C.
Next, `O=c1ccc(S(=O)(=O)c2cc3cc(Cl)ccc3[nH]2)n[nH]1`: above 250 °C; `COc1ccc2cc([C@H](C)C(=O)OCC(=O)COC(=O)Cc3ccc(CO[N+](=O)[O-])cc3)ccc2c1`: 92 to 95 °C; `O=C(Nc1ccc(Cl)c(Cl)c1)c1cc(Br)ccc1O`: 249 to 251 °C.
As to `CC(C)(CO)Nc1nc(-c2cccc(Br)c2)cs1`, the melting point was in the range of 116 to 120 °C.
Consider `CC1(C)C(=O)Nc2cc3[nH]c(-c4ccccc4)nc3cc21`, for which the melting point lay in the range of 195 to 220 °C.
